# Source: paper PMC9820167, “Design and Synthesis of Conformationally Flexible Scaffold as Bitopic Ligands for Potent D3-Selective Antagonists” (International Journal of Molecular Sciences, 2022)
# Key:
# Serotonin 5-HT1D = Serotonin 5-HT1D (Homo sapiens, UniProt P28221); experiment: PDSP binding screen
# Muscarinic M2 = biological target: T1, Muscarinic M2 (Homo sapiens, UniProt P08172); experiment: PDSP binding screen
# T1 sequence (P08172 1-466): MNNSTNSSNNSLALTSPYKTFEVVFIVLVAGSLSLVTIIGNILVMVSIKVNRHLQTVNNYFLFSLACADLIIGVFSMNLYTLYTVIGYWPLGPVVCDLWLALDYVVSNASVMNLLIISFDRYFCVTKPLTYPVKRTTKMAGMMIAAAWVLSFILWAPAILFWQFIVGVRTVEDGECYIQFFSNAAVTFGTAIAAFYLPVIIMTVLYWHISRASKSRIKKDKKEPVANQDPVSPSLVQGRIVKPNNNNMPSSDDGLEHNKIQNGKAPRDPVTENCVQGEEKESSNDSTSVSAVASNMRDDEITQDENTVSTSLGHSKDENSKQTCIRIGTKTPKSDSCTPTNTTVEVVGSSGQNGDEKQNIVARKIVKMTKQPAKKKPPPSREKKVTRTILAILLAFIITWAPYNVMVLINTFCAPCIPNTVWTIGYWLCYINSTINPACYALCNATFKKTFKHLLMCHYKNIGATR
# Adrenergic beta3 = Adrenergic beta3 (Homo sapiens, UniProt P13945); experiment: PDSP binding screen
# Opioid MOR = Opioid MOR (Homo sapiens, UniProt P35372); experiment: PDSP binding screen
# Adrenergic alpha2C = biological target: T2, Adrenergic alpha2C (Homo sapiens, UniProt P18825); experiment: PDSP binding screen
# T2 sequence (P18825 1-462): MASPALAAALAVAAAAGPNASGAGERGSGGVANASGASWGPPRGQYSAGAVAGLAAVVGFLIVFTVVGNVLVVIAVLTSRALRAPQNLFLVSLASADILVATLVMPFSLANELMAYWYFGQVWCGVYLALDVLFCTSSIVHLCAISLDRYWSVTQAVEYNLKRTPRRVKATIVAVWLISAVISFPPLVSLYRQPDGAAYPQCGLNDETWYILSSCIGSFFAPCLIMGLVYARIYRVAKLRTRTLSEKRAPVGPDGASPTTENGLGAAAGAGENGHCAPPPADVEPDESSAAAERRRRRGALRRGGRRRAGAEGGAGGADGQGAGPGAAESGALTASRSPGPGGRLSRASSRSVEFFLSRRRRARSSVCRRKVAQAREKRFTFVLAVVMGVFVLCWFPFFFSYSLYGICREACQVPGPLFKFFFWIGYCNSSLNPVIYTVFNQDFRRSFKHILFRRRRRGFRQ
# human D3 receptors = human D3 receptors (Homo sapiens, UniProt P35462); experiment: β-arrestin recruitment assay (antagonist mode, competition with dopamine); format: cell-based; set-up: expressed in transfected cells
# Experimental: Two different assays were used to evaluate the properties of the analogs described above. The receptor binding affinity was measured by radioligand binding assays using [^125I]IABN with D2 or D3 receptors highly expressed HEK293 cells. The functional activity of the analogs was determined using a β-arrestin recruitment assay. The assay was initially conducted in agonist binding mode to confirm that they function as antagonists at the D3 receptor. Once this efficacy was confirmed, the assay was conducted in antagonist mode to determine the ability of the antagonist to compete with dopamine at the D3 receptor. The results of the antagonist mode assay are reported as IC50 values.
# CHO-K1 cells which were overexpressed human D3 receptors were cultured in assaycomplete^TM cell culture kit 107. Cells were seeded at a density of 25,000 cells per well of 96-well plate, and incubated at 5% CO2, 37 °C. Two days later, test compounds were dissolved in DMSO, and diluted with 11-point series in phosphate-buffered saline (PBS). Prepared compounds were added to the cells, and it was incubated for 30 min at 5% CO2, 37 °C. Then, cells were treated with 30 nM (EC80) of dopamine, and the plate was incubated another 90 min. PathHunter^TM detection reagent was added to each well, and then plate was incubated for 80 min at RT in the dark. The chemiluminescent signal was measured by PerkinElmer Enspire plate reader (PerkinElmer, Boston, MA). Data were analyzed by Prism followed by non-linear regression.
# Muscarinic M4 = biological target: T3, Muscarinic M4 (Homo sapiens, UniProt P08173); experiment: PDSP binding screen
# T3 sequence (P08173 1-479): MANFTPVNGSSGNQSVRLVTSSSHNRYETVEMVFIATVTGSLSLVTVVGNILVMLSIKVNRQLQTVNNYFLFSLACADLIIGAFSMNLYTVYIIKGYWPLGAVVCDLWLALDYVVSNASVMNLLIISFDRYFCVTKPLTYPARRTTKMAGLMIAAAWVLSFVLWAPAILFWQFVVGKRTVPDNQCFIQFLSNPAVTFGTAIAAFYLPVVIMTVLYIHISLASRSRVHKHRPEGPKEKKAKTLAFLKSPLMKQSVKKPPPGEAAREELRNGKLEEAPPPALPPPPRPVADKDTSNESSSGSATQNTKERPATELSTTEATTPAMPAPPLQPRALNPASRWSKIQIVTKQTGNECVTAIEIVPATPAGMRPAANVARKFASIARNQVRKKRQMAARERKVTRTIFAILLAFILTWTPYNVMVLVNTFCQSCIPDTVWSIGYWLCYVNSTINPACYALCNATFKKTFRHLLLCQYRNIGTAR
# Dopamine D3 = Dopamine D3 (Homo sapiens, UniProt P35462); experiment: PDSP binding screen
# Adrenergic beta2 = Adrenergic beta2 (Homo sapiens, UniProt P07550); experiment: PDSP binding screen
# [1] = biological target: Benzodiazepine receptor (PBR) (Rattus norvegicus, UniProt P16257); experiment: PDSP binding screen
# GABAA = experiment: PDSP binding screen; conditions: HCl salts
# Chain of human D3 receptors (P35462 whole entry): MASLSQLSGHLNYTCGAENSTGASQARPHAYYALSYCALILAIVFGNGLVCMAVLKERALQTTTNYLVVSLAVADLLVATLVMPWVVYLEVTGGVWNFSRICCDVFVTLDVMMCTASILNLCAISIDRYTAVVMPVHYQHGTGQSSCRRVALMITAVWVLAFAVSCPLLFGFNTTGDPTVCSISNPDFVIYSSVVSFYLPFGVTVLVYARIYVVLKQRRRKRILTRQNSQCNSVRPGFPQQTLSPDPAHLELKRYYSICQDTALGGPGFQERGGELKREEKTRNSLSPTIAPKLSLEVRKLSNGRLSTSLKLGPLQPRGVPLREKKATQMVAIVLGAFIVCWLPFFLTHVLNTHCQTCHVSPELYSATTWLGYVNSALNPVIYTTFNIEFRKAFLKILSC
# Chain of Opioid MOR (P35372 whole entry): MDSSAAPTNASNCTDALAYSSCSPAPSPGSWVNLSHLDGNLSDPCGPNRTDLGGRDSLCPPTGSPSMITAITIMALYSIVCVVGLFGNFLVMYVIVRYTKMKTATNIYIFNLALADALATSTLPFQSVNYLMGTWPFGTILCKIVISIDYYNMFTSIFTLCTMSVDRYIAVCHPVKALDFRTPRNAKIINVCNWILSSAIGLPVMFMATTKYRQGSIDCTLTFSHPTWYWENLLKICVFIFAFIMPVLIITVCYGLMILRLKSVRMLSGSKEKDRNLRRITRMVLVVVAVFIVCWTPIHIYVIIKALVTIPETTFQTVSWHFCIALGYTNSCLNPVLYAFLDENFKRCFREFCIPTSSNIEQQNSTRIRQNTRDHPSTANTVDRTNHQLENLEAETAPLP
# Chain of Dopamine D3 (P35462 whole entry): as the sequence (P35462 whole entry) above
# Chain of Serotonin 5-HT1D (P28221 whole entry): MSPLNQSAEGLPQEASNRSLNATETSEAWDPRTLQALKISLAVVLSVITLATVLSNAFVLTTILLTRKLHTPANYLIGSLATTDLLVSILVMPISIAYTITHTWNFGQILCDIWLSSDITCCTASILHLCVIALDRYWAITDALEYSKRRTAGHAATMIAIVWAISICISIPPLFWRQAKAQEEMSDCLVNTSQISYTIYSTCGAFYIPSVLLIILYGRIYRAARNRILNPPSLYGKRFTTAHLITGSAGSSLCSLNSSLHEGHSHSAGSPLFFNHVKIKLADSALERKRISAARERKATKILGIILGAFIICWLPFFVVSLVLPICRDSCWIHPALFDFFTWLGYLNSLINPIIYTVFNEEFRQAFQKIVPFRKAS
# Chain of Adrenergic beta3 (P13945 whole entry): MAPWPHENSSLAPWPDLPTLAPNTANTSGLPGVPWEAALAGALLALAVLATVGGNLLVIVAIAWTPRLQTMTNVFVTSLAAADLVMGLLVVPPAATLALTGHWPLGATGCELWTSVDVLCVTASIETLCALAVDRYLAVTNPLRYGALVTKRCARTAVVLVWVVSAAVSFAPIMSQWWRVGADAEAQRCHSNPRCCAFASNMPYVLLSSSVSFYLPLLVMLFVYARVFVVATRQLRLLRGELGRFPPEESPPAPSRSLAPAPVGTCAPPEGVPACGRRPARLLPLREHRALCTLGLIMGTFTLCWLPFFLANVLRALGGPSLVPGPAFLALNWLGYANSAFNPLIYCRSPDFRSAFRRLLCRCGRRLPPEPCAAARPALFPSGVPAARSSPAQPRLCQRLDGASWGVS
# Chain of Adrenergic beta2 (P07550 whole entry): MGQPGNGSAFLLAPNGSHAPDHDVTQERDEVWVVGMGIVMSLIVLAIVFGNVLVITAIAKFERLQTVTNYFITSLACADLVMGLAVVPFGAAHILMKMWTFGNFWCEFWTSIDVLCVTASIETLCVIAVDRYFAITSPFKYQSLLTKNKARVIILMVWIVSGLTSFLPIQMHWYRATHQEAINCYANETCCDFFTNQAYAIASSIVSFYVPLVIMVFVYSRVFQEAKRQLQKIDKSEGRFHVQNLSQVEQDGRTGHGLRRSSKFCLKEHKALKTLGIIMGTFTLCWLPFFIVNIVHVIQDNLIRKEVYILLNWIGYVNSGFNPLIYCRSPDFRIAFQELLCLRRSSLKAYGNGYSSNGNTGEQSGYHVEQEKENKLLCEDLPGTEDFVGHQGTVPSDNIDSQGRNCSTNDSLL
smiles,measurement,setting,value
"CCN(CCCNC(=O)c1ccc(-c2cccs2)cc1)CCNC(=O)c1cc(Br)cc(OC)c1OC [9a, 5-Bromo-N-(2-(ethyl(3-(4-(thiophen-2-yl)benzamido)propyl)amino)ethyl)-2,3-dimethoxybenzamide]",Ki,Serotonin 5-HT1D,1010 nM
same,Ki,Muscarinic M2,1200 nM
same,Ki,Adrenergic beta3,1500 nM
same,Ki,Opioid MOR,1560 nM
same,Ki,Adrenergic alpha2C,313 nM
same,IC50,human D3 receptors,14 ± 7.4 nM
same,Emax,"human D3 receptors; percentage of the maximum inhibition of dopamine at EC80 concentration, read-out: Imax (% Control)",67.3 ± 18.9%
same,Ki,Muscarinic M4,1600 nM
same,Ki,Dopamine D3,0.83 nM
same,Ki,Adrenergic beta2,669 nM
same,Ki,[1],1450 nM
same,Ki (nM) or % inhibition at 10 µM: GABAA,GABAA,N/A (N/A; not active means less than 50% inhibition that was obtained in primary binding assay at 10 µM of the compound)
